{"source": "patent US20100272696A1", "about": "“Human Bone-Forming Cells In The Treatment of Inflammatory Rheumatic Diseases” (BONE THERAPEUTICS S.A., priority 2007, published 2010)", "key": {"[1]": {"tested_on": "Carrageenan-Induced Ankle/Paw Inflammation", "assay": "Model of Carrageenan-Induced Ankle/Paw Inflammation (2)", "format": "in vivo, SWISS mice", "details": "DEX 1 mg/kg, OB 1*10^6, FIG. 4", "experimental": "Inflammation was induced by injection of a solution containing 1% lambda carrageenan (CARRA; Sigma, Switzerland) in PBS into the hind paw of 8 weeks old SWISS mice; each animal receiving a single injection in each hind paw (Table 4). Carrageenan injected animals received immediately after injection or PBS only, or a solution of Dexamethasone (DEX; Sigma Switzerland) at a concentration of 1 mg/kg, or 1*10^6 human bone-forming cells (OB) (derived from bone marrow mesenchymal stromal cells as described in Example 1A).\nUnder isoflurane sedation, the circumference of ankles and paws was measured using a digital caliper before the injection at T0 and at T1, T4, T6 and T24; respectively before CARRA administration, and 1 h, 4 h, 6 h and 24 hours after the injection."}, "[2]": {"tested_on": "Carrageenan-Induced Ankle/Paw Inflammation", "assay": "Model of Carrageenan-Induced Ankle/Paw Inflammation (1)", "format": "in vivo, SWISS mice", "details": "DEX 1 mg/kg, OB 1*10^6, FIG. 3", "experimental": "Sigma, Switzerland) in PBS into the hind paw of 8 weeks old SWISS mice; each animal receiving a single injection in each hind paw (Table 3). […] Sigma Switzerland) at a concentration of 1 mg/kg, or 1*10^6 human bone-forming cells (OB) (derived from bone marrow mesenchymal stromal cells as described in Example 1A) or a combination of DEX and OB. [table]"}}}
{"smiles": "C[C@@H]1C[C@H]2[C@@H]3CCC4=CC(=O)C=C[C@]4(C)[C@@]3(F)[C@@H](O)C[C@]2(C)[C@@]1(O)C(=O)CO", "note": "[Dexamethasone]", "values": [{"measurement": "inhibition of inflammation (paw diameter)", "setting": "[1]; 1 h after carrageenan", "value": 100, "unit": "%"}, {"measurement": "inhibition of inflammation (paw diameter)", "setting": "[1]; 6 h after carrageenan", "value": 70, "unit": "%"}, {"measurement": "inhibition of inflammation (paw diameter)", "setting": "[1]; 24 h after carrageenan", "value": 38, "unit": "%"}, {"measurement": "inhibition of inflammation (ankle diameter)", "setting": "[2]; 1 h after carrageenan", "value": 100, "unit": "%"}, {"measurement": "inhibition of inflammation (ankle diameter)", "setting": "[2]; 4 h after carrageenan", "value": 100, "unit": "%"}]}
